{"source": "ChEMBL document CHEMBL3600294", "about": "“Synthesis, molecular docking and biological evaluation of 3-arylfuran-2(5H)-ones as anti-gastric ulcer agent” (Bioorg Med Chem, 2015)", "key": {"[1]": {"experiment": "Inhibition of Staphylococcus aureus TyrRS expressed in Escherichia coli using [ring-3,5-3H]-tyrosine preincubated for 10 mins assessed as aminoacylation by liquid scintillation counting"}, "[2]": {"experiment": "Antioxidant activity assessed as DPPH radical scavenging activity incubated for 30 mins"}, "Helicobacter pylori": {"system": "Helicobacter pylori", "experiment": "Antibacterial activity against Helicobacter pylori ATCC 43504 after 24 hrs by microdilution broth method", "assay_type": "functional", "details": "ATCC 43504, 24 h"}, "[3]": {"molecular_target": "Urease subunit alpha/Urease subunit beta (Helicobacter pylori (strain ATCC 700392 / 26695) (Campylobacterpylori), UniProt P69996)", "sequence (P69996 whole entry)": "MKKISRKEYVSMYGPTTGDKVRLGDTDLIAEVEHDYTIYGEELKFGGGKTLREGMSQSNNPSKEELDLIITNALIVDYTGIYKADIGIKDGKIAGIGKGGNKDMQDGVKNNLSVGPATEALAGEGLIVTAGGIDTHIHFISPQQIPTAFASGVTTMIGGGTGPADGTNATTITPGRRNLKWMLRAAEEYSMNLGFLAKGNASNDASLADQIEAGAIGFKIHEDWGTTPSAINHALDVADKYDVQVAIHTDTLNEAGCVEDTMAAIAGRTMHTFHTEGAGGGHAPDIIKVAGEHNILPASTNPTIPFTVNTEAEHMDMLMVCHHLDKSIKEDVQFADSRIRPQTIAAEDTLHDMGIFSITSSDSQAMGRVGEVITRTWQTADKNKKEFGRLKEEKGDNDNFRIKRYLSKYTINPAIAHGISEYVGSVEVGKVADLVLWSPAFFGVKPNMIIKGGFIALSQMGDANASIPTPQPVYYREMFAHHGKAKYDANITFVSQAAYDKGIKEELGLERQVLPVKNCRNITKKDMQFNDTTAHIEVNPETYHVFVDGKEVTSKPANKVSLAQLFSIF", "sequence (P14916 whole entry, further chain)": "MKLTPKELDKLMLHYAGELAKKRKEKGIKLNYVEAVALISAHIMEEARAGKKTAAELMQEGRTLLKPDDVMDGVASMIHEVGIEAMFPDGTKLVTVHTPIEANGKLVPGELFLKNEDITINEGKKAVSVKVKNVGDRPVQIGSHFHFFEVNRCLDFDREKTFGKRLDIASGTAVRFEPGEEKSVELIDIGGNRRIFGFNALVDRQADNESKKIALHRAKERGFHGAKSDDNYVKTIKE", "experiment": "Inhibition of Helicobacter pylori urease assessed as ammonia production preincubated for 1.5 hrs by indophenol method"}}, "note": "pIC50: −log10 of the molar value."}
{"molecule": "O=C1OCC(OCCN2CCOCC2)=C1c1ccc(O)cc1", "values": [{"measurement": "pIC50", "setting": "[1]", "value": 7.00}]}
{"molecule": "O=C1OCC(O)=C1c1ccccc1", "values": [{"measurement": "pIC50", "setting": "[2]; DPPH radical solution", "value": 4.87}, {"measurement": "MIC50", "setting": "Helicobacter pylori", "value": 4.7, "unit": "µg/mL"}, {"measurement": "pIC50", "setting": "[1]", "value": 5.25}, {"measurement": "pIC50", "setting": "[3]", "value": 4.05}]}
{"molecule": "O=C1OCC(O)=C1c1ccccc1F", "values": [{"measurement": "pIC50", "setting": "[2]; DPPH radical solution", "value": "< 4.00"}, {"measurement": "MIC50", "setting": "Helicobacter pylori", "value": 2.7, "unit": "µg/mL"}, {"measurement": "pIC50", "setting": "[1]", "value": 5.72}, {"measurement": "pIC50", "setting": "[3]", "value": 4.12}]}
{"molecule": "O=C1OCC(O)=C1c1ccccc1Cl", "values": [{"measurement": "pIC50", "setting": "[2]; DPPH radical solution", "value": "< 4.00"}, {"measurement": "MIC50", "setting": "Helicobacter pylori", "value": 36.7, "unit": "µg/mL"}, {"measurement": "pIC50", "setting": "[3]", "value": 4.17}]}
{"molecule": "Cc1ccccc1C1=C(O)COC1=O", "values": [{"measurement": "pIC50", "setting": "[2]; DPPH radical solution", "value": 4.34}, {"measurement": "MIC50", "setting": "Helicobacter pylori", "value": 1.5, "unit": "µg/mL"}, {"measurement": "pIC50", "setting": "[1]", "value": 6.22}, {"measurement": "pIC50", "setting": "[3]", "value": 4.19}]}
{"molecule": "O=C1OCC(O)=C1c1ccccc1OCc1ccccc1", "values": [{"measurement": "pIC50", "setting": "[2]; DPPH radical solution", "value": "< 4.00"}, {"measurement": "MIC50", "setting": "Helicobacter pylori", "value": 13.8, "unit": "µg/mL"}, {"measurement": "pIC50", "setting": "[1]", "value": 5.60}, {"measurement": "pIC50", "setting": "[3]", "value": 4.30}]}
{"molecule": "O=C1OCC(O)=C1c1cccc(F)c1", "values": [{"measurement": "pIC50", "setting": "[2]; DPPH radical solution", "value": 4.63}, {"measurement": "MIC50", "setting": "Helicobacter pylori", "value": "> 100", "unit": "µg/mL"}, {"measurement": "pIC50", "setting": "[1]", "value": 4.56}, {"measurement": "pIC50", "setting": "[3]", "value": 4.21}]}
{"molecule": "O=C1OCC(O)=C1c1cccc(Cl)c1", "values": [{"measurement": "pIC50", "setting": "[2]; DPPH radical solution", "value": 4.78}, {"measurement": "MIC50", "setting": "Helicobacter pylori", "value": 36.7, "unit": "µg/mL"}, {"measurement": "pIC50", "setting": "[1]", "value": 4.81}, {"measurement": "pIC50", "setting": "[3]", "value": 4.34}]}
{"molecule": "O=C1OCC(O)=C1c1cccc(Br)c1", "values": [{"measurement": "pIC50", "setting": "[2]; DPPH radical solution", "value": 4.95}, {"measurement": "MIC50", "setting": "Helicobacter pylori", "value": 24.5, "unit": "µg/mL"}, {"measurement": "pIC50", "setting": "[1]", "value": 4.88}, {"measurement": "pIC50", "setting": "[3]", "value": 4.09}]}
{"molecule": "Cc1cccc(C2=C(O)COC2=O)c1", "values": [{"measurement": "pIC50", "setting": "[2]; DPPH radical solution", "value": 5.09}, {"measurement": "MIC50", "setting": "Helicobacter pylori", "value": 2.6, "unit": "µg/mL"}, {"measurement": "pIC50", "setting": "[1]", "value": 5.96}, {"measurement": "pIC50", "setting": "[3]", "value": 4.51}]}
{"molecule": "O=C1OCC(O)=C1c1cccc(C(F)(F)F)c1", "values": [{"measurement": "pIC50", "setting": "[2]; DPPH radical solution", "value": 3.96}, {"measurement": "MIC50", "setting": "Helicobacter pylori", "value": 28.2, "unit": "µg/mL"}, {"measurement": "pIC50", "setting": "[1]", "value": 4.76}, {"measurement": "pIC50", "setting": "[3]", "value": 4.19}]}
{"molecule": "O=C1OCC(O)=C1c1cccc(OCc2ccccc2)c1", "values": [{"measurement": "pIC50", "setting": "[2]; DPPH radical solution", "value": 4.50}, {"measurement": "MIC50", "setting": "Helicobacter pylori", "value": 31.7, "unit": "µg/mL"}, {"measurement": "pIC50", "setting": "[3]", "value": 4.11}]}
{"molecule": "O=C1OCC(O)=C1c1ccc(F)cc1", "values": [{"measurement": "pIC50", "setting": "[2]; DPPH radical solution", "value": "< 4.00"}, {"measurement": "MIC50", "setting": "Helicobacter pylori", "value": 27.7, "unit": "µg/mL"}, {"measurement": "pIC50", "setting": "[3]", "value": 4.39}]}
{"molecule": "O=C1OCC(O)=C1c1ccc(Cl)cc1", "values": [{"measurement": "pIC50", "setting": "[2]; DPPH radical solution", "value": 4.73}, {"measurement": "MIC50", "setting": "Helicobacter pylori", "value": 49.3, "unit": "µg/mL"}, {"measurement": "pIC50", "setting": "[3]", "value": "< 4.00"}]}
{"molecule": "O=C1OCC(O)=C1c1ccc(Br)cc1", "values": [{"measurement": "pIC50", "setting": "[2]; DPPH radical solution", "value": 4.77}, {"measurement": "MIC50", "setting": "Helicobacter pylori", "value": 61.3, "unit": "µg/mL"}, {"measurement": "pIC50", "setting": "[3]", "value": "< 4.00"}]}
{"molecule": "Cc1ccc(C2=C(O)COC2=O)cc1", "values": [{"measurement": "pIC50", "setting": "[2]; DPPH radical solution", "value": 4.91}, {"measurement": "MIC50", "setting": "Helicobacter pylori", "value": 15.2, "unit": "µg/mL"}, {"measurement": "pIC50", "setting": "[1]", "value": 5.07}, {"measurement": "pIC50", "setting": "[3]", "value": "< 4.00"}]}
{"molecule": "O=C1OCC(O)=C1c1ccc(OCc2ccccc2)cc1", "values": [{"measurement": "pIC50", "setting": "[2]; DPPH radical solution", "value": 4.47}, {"measurement": "MIC50", "setting": "Helicobacter pylori", "value": 52.1, "unit": "µg/mL"}, {"measurement": "pIC50", "setting": "[1]", "value": 4.52}, {"measurement": "pIC50", "setting": "[3]", "value": 4.98}]}
{"molecule": "O=C1OCC(O)=C1c1ccc(Cl)c(Cl)c1", "values": [{"measurement": "pIC50", "setting": "[2]; DPPH radical solution", "value": 4.54}, {"measurement": "MIC50", "setting": "Helicobacter pylori", "value": "> 100", "unit": "µg/mL"}, {"measurement": "pIC50", "setting": "[3]", "value": "< 4.00"}]}
{"molecule": "COc1ccc(C2=C(O)COC2=O)cc1OC", "values": [{"measurement": "pIC50", "setting": "[2]; DPPH radical solution", "value": 4.69}, {"measurement": "MIC50", "setting": "Helicobacter pylori", "value": 46.2, "unit": "µg/mL"}, {"measurement": "pIC50", "setting": "[3]", "value": 4.44}]}
{"molecule": "CCOc1ccc(C2=C(O)COC2=O)cc1OCC", "values": [{"measurement": "pIC50", "setting": "[2]; DPPH radical solution", "value": 4.63}, {"measurement": "MIC50", "setting": "Helicobacter pylori", "value": 72.5, "unit": "µg/mL"}, {"measurement": "pIC50", "setting": "[3]", "value": 4.04}]}
{"molecule": "O=C1OCC(O)=C1c1ccc(Cl)cc1Cl", "values": [{"measurement": "pIC50", "setting": "[2]; DPPH radical solution", "value": "< 4.00"}, {"measurement": "MIC50", "setting": "Helicobacter pylori", "value": "> 100", "unit": "µg/mL"}, {"measurement": "pIC50", "setting": "[3]", "value": "< 4.00"}]}
{"molecule": "CC1(C)S[C@@H]2[C@H](NC(=O)[C@H](N)c3ccc(O)cc3)C(=O)N2[C@H]1C(=O)O", "note": "[AMOXICILLIN]", "values": [{"measurement": "MIC50", "setting": "Helicobacter pylori", "value": 0.8, "unit": "µg/mL"}]}
{"molecule": "O=C1O[C@H]([C@@H](O)CO)C(O)=C1O", "note": "[ASCORBIC ACID]", "values": [{"measurement": "pIC50", "setting": "[2]", "value": 4.92}]}
